Test results from US9321804B2, “Synthesis and use of anti-tumor drug LQC-Y” (Beijing University of Chinese Medicine, priority 2011, dated 2016).
“Also recorded” adds a separate entry of the source.

Assays:
[1] = system: small vessel growth of CAM model; test: Effect of LQC-Y on tumor angiogenesis using CAM method (small vessel count); format: in vivo, chicken; conditions: compared with the blank group
Method: Aseptic gelatin sponge, which was made into a wafer having a diameter of 5 mm by a hole-puncher in advance, was used as sample carrier. The prepared derivatives of bromotetramethylpyrazine series were added thereinto in an aseptic environment and different dosage groups were set according to the difference of the molecular weight of each medicine, including 10 μg/chicken embryo, 20 μg/chicken embryo and 40 μg/chicken embryo. The 0.9% physiological saline was used in a blank group. The samples were air-dried in an aseptic environment.
A hatching egg after disinfection was put into a 37° C. incubation box with air sac upward until the seventh day of incubation. The egg embryo was disinfected using alcohol at a super clean bench, and then a small hole was drilled at the top of the egg embryo using a dental drill, and the nearby egg shell and shell membrane were removed carefully to form a opening with the size of about 1.2 cm×1.2 cm. […]
After the incubation, the transparent tape blocking the chicken embryo air sac was softly removed with a nipper. […] The effect of the compounds on angiogenesis was evaluated by the count analytic method using the numbers of great vessels, medium vessels and small vessels arranged radially around the carrier. […]

[2] = system: Human hepatoma carcinoma cells Bel7402; test: Proliferation of human hepatoma carcinoma cells Bel7402 by MTT; format: cell-based; conditions: 40 μg/ml
[3] = system: Human hepatoma carcinoma cells Bel7402; test: as above; format: cell-based; conditions: for 24 h inhibition ratio (%): Bel7402 cells; for inhibiting effect on the proliferation of Bel7402 cells: cultured in vitro, 10-40 μg/ml
Method: Human hepatoma carcinoma cells Bel7402 were recovered and subcultured using a culture flask. The preparation of the experiment was started when the cell growth entered into the exponential growth phase. The cells were then digested using pancreatic enzyme which had been filtrated at an increased pressure to prepare the cell suspension. After that the suspension was dyed for 3 min with 0.4% trypan blue. Then a blood cell counting plate was used to count the living cells which were not dyed and the dead cells which were dyed to blue. The number of the living cells identified by trypan blue was more than 98%.
Three kinds of cells which were in the exponential growth phase were inoculated at the density of 1×10^4/ml, to a 96-well plate, 200 μl for each well. Then the plate was put in a 37° C. 5% CO2 incubation box to be cultured for 24 h. The cultivation liquid was sucked away and 200 μl LQC-Y solutions of different concentrations were added thereinto (prepared with DMEM cultivation liquid containing 4% calf serum and the final concentration of which respectively were 10 μg, 20 μg, 40 μg), 4 parallel wells for each concentration. Supernatant cultivation liquid 100 μl was sucked away carefully from each well after being cultured for 24 h and 48 h, and MTS 20 μl was added into each well and homogeneously mixed. The resultant liquid was cultured in a 37° C. 5% CO2 incubation box for a further 1 h. An enzyme-labeling quantitative instrument was used to measure the absorbance at 492 nm. The experiment was repeated for 3 times and then an inhibition ratio was calculated.
The inhibition ratio of cell proliferation (%)=[(average OD value of control group-average OD value of the administration group)/average OD value of control group]×100%

S180 sarcoma of mice = test: Tumor inhibiting effect of LQC-Y2 in tumor bearing S180 mice; conditions: for Tumor inhibiting ratio (%) / Tumor weight: S180 Balb/C mice, 15 days
Method: The S180 mice that had been inoculated for 7 days were killed by breaking the neck thereof and ascites was taken from the mice respectively in an aseptic environment and the ascites was washed using RPMI1640 culture medium for 2 times and then made into a […] /ml cell suspension using aseptic physiological saline. Then the obtained S180 cell suspension was inoculated hypodermically at the right axillary of mice, 0.1 ml for each mouse and 50 mice total, to establish the solid tumor model.
60 mice were divided into 2 categories, including 6 groups, according to the random number table method, i.e. normal control group of the first category, and S180 solid tumor groups of the second category which included positive (cyclophosphamide) control group, negative control group, small dosage group, middle dosage group and large dosage group, 10 mice for each group. The experiment was repeated for 3 times.
LQC-Y2 was made into an emulsion using corn oil. The dosage of the small dosage group was 75 mg/Kg, the dosage of the middle dosage group was 150 mg/Kg, and the dosage of the large dosage group was 300 mg/kg. Equal volume of corn oil was injected into the mice of the negative control group, cyclophosphamide injection 0.02 g/(Kg.d) was injected into the mice of the positive control group. These medicines were administrated 0.1 ml per mouse by intraperitoneal injection every the other day continuously for 15 days. During this period, the common behavior, hair and excrement and so on were observed daily. The mice that had been inoculated with S180 by hypodermic inoculation were killed by breaking the necks thereof after 24 h after the last administration and the tumor, liver and spleen were then taken.
The weight of the solid tumor group mice were measured after all the administration was over and then the mice were killed. The spleens and the livers thereof were weighed by an electronic balance. The spleen index was calculated as the spleen weight of a mouse (mg)/the body weight of a mouse(g) and the liver index was calculated as the liver weight of a mouse[…]/the body weight of a mouse(g).
The solid tumor negative control group mice were weighed on the next day after the administration was finished (the eyeballs of the mice were removed to bleed and the serum was collected for subsequent experimental use). Then the mice were killed by breaking the neck thereof. The tumor tissues were taken out and weighed by an electronic balance to calculate the tumor-inhibiting ratio.
All the data were statistically analyzed using SPSS11.0 software pack. The comparison of the enumeration data was carried out with X^2 test. P<0.05 had statistical significance.

[4] = large dosage 300 mg/kg i.p. every other day
[5] = middle dosage 150 mg/Kg i.p. every other day
[6] = small dosage 75 mg/Kg i.p. every other day

Structure (SMILES)	vessel growth inhibiting effect [1]	24 h inhibition ratio (%) [2]	24 h inhibition ratio (%) ([3]; 10 μg/ml)	24 h inhibition ratio (%) ([3]; 20 μg/ml)	inhibiting effect on the proliferation of Bel7402 cells [3]	effect on the growth of the sarcoma of S180 mice (S180 sarcoma of mice; 75-300 mg/kg i.p.)	Tumor inhibiting ratio (%) (S180 sarcoma of mice; [4])	Tumor weight (S180 sarcoma of mice; [4])	Tumor inhibiting ratio (%) (S180 sarcoma of mice; [5])	Tumor weight (S180 sarcoma of mice; [5])	Tumor inhibiting ratio (%) (S180 sarcoma of mice; [6])	Tumor weight (S180 sarcoma of mice; [6])	effect on the growth of the S180 sarcoma mice's weight (S180 sarcoma of mice; mouse, in vivo)
Cc1nc(C)c(COC(=O)CCC(C)C2CCC3C4CCC5CC(O)CCC5(C)C4CC(O)C23C)nc1C (stereo not drawn) [LQC-Y2, (3,5,6-trimethyl pyrazine-2-yl)methyl-4-(3,12-dihydroxy-10,13-dimethylhexadecahydro-1H-cyclopenta[a]phenanthren-17-yl)pentanoate]	significant inhibiting effect; also recorded: magnificent inhibiting effect	66.98%	20.09%	61.2%	evident inhibiting effect	Some Effect on Inhibiting the Growth; also recorded: inhibit the growth of S180 tumor effectively	29.15%	0.92 ± 0.49 g	35.88%	0.84 ± 0.53 g	6.87%	1.22 ± 0.62 g	no effect
COc1cc(/C=C/C(=O)CC(=O)/C=C/c2ccc(OCc3nc(C)c(C)nc3C)c(OC)c2)ccc1OCc1nc(C)c(C)nc1C [LQC-Y8, (1E,6E)-1,7-bis(3-methoxy-4-((3,5,6-trimethylpyrazine-2-yl)methoxy)phenyl)heptyl-1,6-diene-3,5-diketone]	significant inhibiting effect; also recorded: magnificent inhibiting effect	54.07%	39.31%	44.58%	evident inhibiting effect	–	–	–	–	–	–	–	–
